Results as given in patent US4259328A, “Morpholino pyridazinylhydrazones” (Richter Gedeon Vegyeszeti Gyar Rt, priority 1977, dated 1981).

Tested on: not listed separately
Test: Acute toxicity (LD50) on mice
Conditions: mouse, in vivo, po

| Structure (SMILES) | LD50 [mg/kg] |
| --- | --- |
| CC(CCCC(=O)O)=NNc1ccc(N2CCOCC2)nn1 [Example 57, 5-Carboxy-2-pentylidene-3-morpholino-6-pyridazinylhydrazone] | 200 |
| CCOC(=O)CC=NNc1ccc(Cl)nn1 [Example 65, 2-(Ethoxycarbonyl)-1-ethylidene-(3-chloro-6-pyridazinyl)hydrazone] | > 200 |
| CC(CCC(=O)O)=NNc1ccc(Cl)nn1 [Example 38, 4-Carboxy-2-butylidene-3-chloro-6-pyridazinylhydrazone] | 200 |
| CC(CCC(=O)OC(C)(C)C)=NNc1ccc(Cl)nn1 [Example 43, 4-(tert.-Butoxycarbonyl)-2-butylidene-3-chloro-6-pyridazinylhydrazone] | 200 |
| CC(CCC(=O)O)=NNc1ccc(N2CCOCC2)nn1 [Example 48, 4-Carboxy-2-butylidene-3-morpholino-6-pyridazinylhydrazone] | 200 |
| CC(CCC(=O)O)=NNc1ccc(C)nn1 [Example 55, 4-Carboxy-2-butylidene-(3-methyl-6-pyridazinyl) hydrazone] | > 200 |
| CCOC(=O)C(C)C(C)=NNc1ccc(Cl)nn1 (stereo not drawn) [Example 25, 3-(Ethoxycarbonyl)-2-butylidene-3-chloro-6-pyridazinylhydrazone] | 200 |
| CC(CCCC(=O)O)=NNc1ccc(Cl)nn1 [Example 50, 5-Carboxy-2-pentylidene-3-chloro-6-pyridazinylhydrazone] | 200 |
| COC(=O)CCC(C)=NNc1ccc(Cl)nn1 [Example 23] | 200 |
| CC(CC(=O)OC(C)(C)C)=NNc1ccc(C)nn1 [Example 53, 3-(tert.-Butoxycarbonyl)-2-propylidene-(3-methyl-6-pyridazinyl) hydrazone] | 200 |
| CCOC(=O)CCCCC(C)=NNc1ccc(Cl)nn1 [Example 49, 6-(Ethoxycarbonyl)-2-hexylidene-3-chloro-6-pyridazinylhydrazone] | < 200 |
| CCOC(=O)CCCC(C)=NNc1ccc(Cl)nn1 [Example 26] | 200 |
| CCOC(=O)CCC(C)=NNc1ccc(Cl)nn1 [Example 62, 4-(Ethoxycarbonyl)-2-butylidene-(3-chloro-6-pyridazinl)hydrazone] | 200 |

Molecular target: T1, dopamine-β-hydroxylase (Bos taurus, UniProt P15101)
T1 construct: from tissue; host or cells: bovine adrenal (gland) preparations
T1 sequence (P15101 1-610): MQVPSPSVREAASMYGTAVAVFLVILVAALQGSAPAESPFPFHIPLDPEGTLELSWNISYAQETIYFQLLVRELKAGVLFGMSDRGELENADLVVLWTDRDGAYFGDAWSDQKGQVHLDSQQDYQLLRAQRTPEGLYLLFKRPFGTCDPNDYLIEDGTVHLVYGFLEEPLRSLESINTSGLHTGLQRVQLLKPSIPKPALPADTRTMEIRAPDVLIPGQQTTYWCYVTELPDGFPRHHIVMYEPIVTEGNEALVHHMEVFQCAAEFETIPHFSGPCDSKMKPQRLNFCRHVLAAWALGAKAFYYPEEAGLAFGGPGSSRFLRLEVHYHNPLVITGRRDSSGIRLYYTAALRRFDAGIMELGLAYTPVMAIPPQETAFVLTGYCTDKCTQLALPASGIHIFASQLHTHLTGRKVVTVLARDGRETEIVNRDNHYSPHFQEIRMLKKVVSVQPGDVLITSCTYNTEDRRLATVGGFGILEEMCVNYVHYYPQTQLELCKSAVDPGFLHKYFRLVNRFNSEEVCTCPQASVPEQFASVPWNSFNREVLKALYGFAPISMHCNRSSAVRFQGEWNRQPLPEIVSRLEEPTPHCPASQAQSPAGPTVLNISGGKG
Test: Dopamine-β-hydroxylase inhibiting activity (DBH) on bovine adrenal (gland) preparations
Format: biochemical
Conditions: 10^-4 mole/liter; read-out: Enzyme inhibiting activity, DBH
Experimental: Dopamine-β-hydroxylase inhibiting activity (DBH inhibiting activity) of the compounds according to the invention was tested on bovine adrenal (gland) preparations by a modified version of Nagatsu's method [B.B. Acta, 139 319 (1967)].
Inhibiting effect of several compounds encompassed by the formula I in comparison with some known compounds is listed in the following Table I.

| Structure (SMILES) | inhibition at 100 µM [%] |
| --- | --- |
| CCOC(=O)CC=NNc1ccc(Cl)nn1 [Example 65, 2-(Ethoxycarbonyl)-1-ethylidene-(3-chloro-6-pyridazinyl)hydrazone] | 73 |
| CC(CCC(=O)O)=NNc1ccc(C)nn1 [Example 55, 4-Carboxy-2-butylidene-(3-methyl-6-pyridazinyl) hydrazone] | 50 |
| CC(CCCC(=O)O)=NNc1ccc(Cl)nn1 [Example 50, 5-Carboxy-2-pentylidene-3-chloro-6-pyridazinylhydrazone] | 73 |
| COC(=O)CCC(C)=NNc1ccc(Cl)nn1 [Example 23] | 70 |
| CCOC(=O)CCCCC(C)=NNc1ccc(Cl)nn1 [Example 49, 6-(Ethoxycarbonyl)-2-hexylidene-3-chloro-6-pyridazinylhydrazone] | 66 |
| CCOC(=O)CCC(C)=NNc1ccc(Cl)nn1 [Example 62, 4-(Ethoxycarbonyl)-2-butylidene-(3-chloro-6-pyridazinl)hydrazone] | 60 |

Same assay, conditions: 10^-5 mole/liter; read-out: Enzyme inhibiting activity, DBH

| Structure (SMILES) | inhibition at 10 µM [%] |
| --- | --- |
| CCOC(=O)CC=NNc1ccc(Cl)nn1 [Example 65, 2-(Ethoxycarbonyl)-1-ethylidene-(3-chloro-6-pyridazinyl)hydrazone] | 44 |
| CC(CCC(=O)O)=NNc1ccc(C)nn1 [Example 55, 4-Carboxy-2-butylidene-(3-methyl-6-pyridazinyl) hydrazone] | 0 |
| CC(CCCC(=O)O)=NNc1ccc(Cl)nn1 [Example 50, 5-Carboxy-2-pentylidene-3-chloro-6-pyridazinylhydrazone] | 0 |
| COC(=O)CCC(C)=NNc1ccc(Cl)nn1 [Example 23] | 50 |
| CCOC(=O)CCCCC(C)=NNc1ccc(Cl)nn1 [Example 49, 6-(Ethoxycarbonyl)-2-hexylidene-3-chloro-6-pyridazinylhydrazone] | 50 |

Tested on: spontaneous hypertensive rats (Wistar-Okamoto rats)
Test: Blood pressure lowering activity, systolic blood pressure of waking spontaneous hypertensive rats, oral
Format: in vivo, rat
Conditions: Rattus norvegicus; 4 hours, 50 mg/kg, oral; read-out: Reduction in blood pressure
Experimental: Blood pressure lowering activity of the new compounds according to the invention was tested on spontaneous hypertensive rats (Wistar-Okamoto rats) following the method described in Arzn. Forsch., 6, 222 (1956). Systolic blood pressure of waking animals was measured in arteria caudalis 4, 24, 48 and 72 hours after the oral administration of the test compounds.

| Structure (SMILES) | change in vivo at 50 mg/kg [%] |
| --- | --- |
| CCOC(=O)CC=NNc1ccc(Cl)nn1 [Example 65, 2-(Ethoxycarbonyl)-1-ethylidene-(3-chloro-6-pyridazinyl)hydrazone] | -18 |
| CC(CCC(=O)O)=NNc1ccc(Cl)nn1 [Example 38, 4-Carboxy-2-butylidene-3-chloro-6-pyridazinylhydrazone] | -34 |
| CC(CCC(=O)OC(C)(C)C)=NNc1ccc(Cl)nn1 [Example 43, 4-(tert.-Butoxycarbonyl)-2-butylidene-3-chloro-6-pyridazinylhydrazone] | -32 |
| CCOC(=O)C(C)C(C)=NNc1ccc(Cl)nn1 (stereo not drawn) [Example 25, 3-(Ethoxycarbonyl)-2-butylidene-3-chloro-6-pyridazinylhydrazone] | -33 |
| COC(=O)CCC(C)=NNc1ccc(Cl)nn1 [Example 23] | -21 |
| CC(CC(=O)OC(C)(C)C)=NNc1ccc(C)nn1 [Example 53, 3-(tert.-Butoxycarbonyl)-2-propylidene-(3-methyl-6-pyridazinyl) hydrazone] | -32 |
| CCOC(=O)CCCC(C)=NNc1ccc(Cl)nn1 [Example 26] | -38 |
| CCOC(=O)CCC(C)=NNc1ccc(Cl)nn1 [Example 62, 4-(Ethoxycarbonyl)-2-butylidene-(3-chloro-6-pyridazinl)hydrazone] | -29 |

Same assay, conditions: Rattus norvegicus; 4 hours, + = 20 mg/kg, oral; read-out: Reduction in blood pressure

| Structure (SMILES) | change in vivo at 20 mg/kg [%] |
| --- | --- |
| CC(CCC(=O)O)=NNc1ccc(C)nn1 [Example 55, 4-Carboxy-2-butylidene-(3-methyl-6-pyridazinyl) hydrazone] | -39 |
| CC(CCCC(=O)O)=NNc1ccc(Cl)nn1 [Example 50, 5-Carboxy-2-pentylidene-3-chloro-6-pyridazinylhydrazone] | -28 |
| CCOC(=O)CCCCC(C)=NNc1ccc(Cl)nn1 [Example 49, 6-(Ethoxycarbonyl)-2-hexylidene-3-chloro-6-pyridazinylhydrazone] | -22 |

Same assay, conditions: Rattus norvegicus; 4 hours, oral; read-out: Reduction in blood pressure

| Structure (SMILES) | change in vivo at 2.5 mg/kg [%] |
| --- | --- |
| CC(CCCC(=O)O)=NNc1ccc(N2CCOCC2)nn1 [Example 57, 5-Carboxy-2-pentylidene-3-morpholino-6-pyridazinylhydrazone] | -28 |
| CC(CCC(=O)O)=NNc1ccc(N2CCOCC2)nn1 [Example 48, 4-Carboxy-2-butylidene-3-morpholino-6-pyridazinylhydrazone] | -33 |

Same assay, conditions: Rattus norvegicus; 24 hours, 50 mg/kg, oral; read-out: Reduction in blood pressure

| Structure (SMILES) | change in vivo at 50 mg/kg [%] |
| --- | --- |
| CCOC(=O)CC=NNc1ccc(Cl)nn1 [Example 65, 2-(Ethoxycarbonyl)-1-ethylidene-(3-chloro-6-pyridazinyl)hydrazone] | -23 |
| CC(CCC(=O)O)=NNc1ccc(Cl)nn1 [Example 38, 4-Carboxy-2-butylidene-3-chloro-6-pyridazinylhydrazone] | -27 |
| CC(CCC(=O)OC(C)(C)C)=NNc1ccc(Cl)nn1 [Example 43, 4-(tert.-Butoxycarbonyl)-2-butylidene-3-chloro-6-pyridazinylhydrazone] | -18 |
| CCOC(=O)C(C)C(C)=NNc1ccc(Cl)nn1 (stereo not drawn) [Example 25, 3-(Ethoxycarbonyl)-2-butylidene-3-chloro-6-pyridazinylhydrazone] | -17 |
| COC(=O)CCC(C)=NNc1ccc(Cl)nn1 [Example 23] | -8 |
| CC(CC(=O)OC(C)(C)C)=NNc1ccc(C)nn1 [Example 53, 3-(tert.-Butoxycarbonyl)-2-propylidene-(3-methyl-6-pyridazinyl) hydrazone] | -27 |
| CCOC(=O)CCCC(C)=NNc1ccc(Cl)nn1 [Example 26] | -29 |
| CCOC(=O)CCC(C)=NNc1ccc(Cl)nn1 [Example 62, 4-(Ethoxycarbonyl)-2-butylidene-(3-chloro-6-pyridazinl)hydrazone] | -26 |

Same assay, conditions: Rattus norvegicus; 24 hours, + = 20 mg/kg, oral; read-out: Reduction in blood pressure

| Structure (SMILES) | change in vivo at 20 mg/kg [%] |
| --- | --- |
| CC(CCC(=O)O)=NNc1ccc(C)nn1 [Example 55, 4-Carboxy-2-butylidene-(3-methyl-6-pyridazinyl) hydrazone] | -14 |
| CC(CCCC(=O)O)=NNc1ccc(Cl)nn1 [Example 50, 5-Carboxy-2-pentylidene-3-chloro-6-pyridazinylhydrazone] | -30 |
| CCOC(=O)CCCCC(C)=NNc1ccc(Cl)nn1 [Example 49, 6-(Ethoxycarbonyl)-2-hexylidene-3-chloro-6-pyridazinylhydrazone] | -13 |

Same assay, conditions: Rattus norvegicus; 24 hours, oral; read-out: Reduction in blood pressure

| Structure (SMILES) | change in vivo at 2.5 mg/kg [%] |
| --- | --- |
| CC(CCCC(=O)O)=NNc1ccc(N2CCOCC2)nn1 [Example 57, 5-Carboxy-2-pentylidene-3-morpholino-6-pyridazinylhydrazone] | -16 |
| CC(CCC(=O)O)=NNc1ccc(N2CCOCC2)nn1 [Example 48, 4-Carboxy-2-butylidene-3-morpholino-6-pyridazinylhydrazone] | -8 |

Same assay, conditions: ≥-15%

| Structure (SMILES) | significant blood pressure lowering activity [%] |
| --- | --- |
| CC(CCCC(=O)O)=NNc1ccc(N2CCOCC2)nn1 [Example 57, 5-Carboxy-2-pentylidene-3-morpholino-6-pyridazinylhydrazone] | ≥ -15 |
| CCOC(=O)CC=NNc1ccc(Cl)nn1 [Example 65, 2-(Ethoxycarbonyl)-1-ethylidene-(3-chloro-6-pyridazinyl)hydrazone] | ≥ -15 |
| CC(CCC(=O)O)=NNc1ccc(Cl)nn1 [Example 38, 4-Carboxy-2-butylidene-3-chloro-6-pyridazinylhydrazone] | ≥ -15 |
| CC(CCC(=O)OC(C)(C)C)=NNc1ccc(Cl)nn1 [Example 43, 4-(tert.-Butoxycarbonyl)-2-butylidene-3-chloro-6-pyridazinylhydrazone] | ≥ -15 |
| CC(CCC(=O)O)=NNc1ccc(N2CCOCC2)nn1 [Example 48, 4-Carboxy-2-butylidene-3-morpholino-6-pyridazinylhydrazone] | ≥ -15 |
| CC(CCC(=O)O)=NNc1ccc(C)nn1 [Example 55, 4-Carboxy-2-butylidene-(3-methyl-6-pyridazinyl) hydrazone] | ≥ -15 |
| CCOC(=O)C(C)C(C)=NNc1ccc(Cl)nn1 (stereo not drawn) [Example 25, 3-(Ethoxycarbonyl)-2-butylidene-3-chloro-6-pyridazinylhydrazone] | ≥ -15 |
| CC(CCCC(=O)O)=NNc1ccc(Cl)nn1 [Example 50, 5-Carboxy-2-pentylidene-3-chloro-6-pyridazinylhydrazone] | ≥ -15 |
| COC(=O)CCC(C)=NNc1ccc(Cl)nn1 [Example 23] | ≥ -15 |
| CC(CC(=O)OC(C)(C)C)=NNc1ccc(C)nn1 [Example 53, 3-(tert.-Butoxycarbonyl)-2-propylidene-(3-methyl-6-pyridazinyl) hydrazone] | ≥ -15 |
| CCOC(=O)CCCCC(C)=NNc1ccc(Cl)nn1 [Example 49, 6-(Ethoxycarbonyl)-2-hexylidene-3-chloro-6-pyridazinylhydrazone] | ≥ -15 |
| CCOC(=O)CCCC(C)=NNc1ccc(Cl)nn1 [Example 26] | ≥ -15 |
| CCOC(=O)CCC(C)=NNc1ccc(Cl)nn1 [Example 62, 4-(Ethoxycarbonyl)-2-butylidene-(3-chloro-6-pyridazinl)hydrazone] | ≥ -15 |
